{
  "source": "patent US20220151953A1",
  "about": "“TREATMENT OF INFLAMMATORY SKIN CONDITIONS” (Echo Pharmaceuticals B.V., priority 2019, published 2022)",
  "key": {"IL-1β": {"tested_on": "IL-1β", "experiment": "Inhibition of secretion of IL-1β by LPS-stimulated U937 cells (ELISA)", "assay_type": "cell-based", "protocol": "(§1) The impact of cannabidiol, extract of Silybum marianum (fruit without pappus) and combinations of these components on the production of cytokines IL-1β and TNFα by a U937 cell line were investigated.\n(§2) U937 cells, were thawed and treated according to the manufacturer's instructions. The cultures were incubated for recovery at 37° C. with 5% CO2 until 70-80% confluency was reached (visual estimation). Then, approx. 0.3×10^6¢/mL (determined by counting) were seeded in 96 well plates containing 200 μL/well of complete growth medium. The cells were incubated at 37° C. with 5% CO2 until 60% confluency was reached (visual estimation, typically—after 48 hr).\n(§3) A proper blank control was subtracted from the measurements.\n(§4) The cells were incubated for 24 hr. at 37° C. with 5% CO2. After the incubation, the conditioned medium of the different treatment groups was collected under standardized conditions and centrifuged at 250×g for 5 min to remove particulates. Clear supernatants were frozen at −70° C. until cytokines analyses. The secretion levels of IL-1β and TNFα (a major inflammatory marker) were quantified by commercial ELISA."}, "TNFα": {"tested_on": "TNFα", "experiment": "Inhibition of secretion of TNFα by LPS-stimulated U937 cells (ELISA)", "assay_type": "cell-based", "protocol": "as §1, §2, §3, §4"}, "prostaglandin E2 (PGE2)": {"tested_on": "prostaglandin E2 (PGE2)", "experiment": "Secretion of PGE2 by LPS-stimulated RAW 264.7 cells", "assay_type": "cell-based", "conditions": "Mus musculus, RAW264.7, LPS 12.5 ng/ml, each component present at 2.5 μg/ml", "protocol": "The impact of cannabidiol, extract of Silybum marianum (fruit without pappus) and extract of Centella asiatica (leaf) on the secretion of prostaglandin E2 (PGE2) was investigated.\nRAW 264.7 cells (approx. 2.5×10^5¢/ml, by counting) were seeded in 96 well plates containing 170 μl/well of complete growth medium. The cells were incubated at 37° C. with 5% CO2 for 24 hr. Then, the medium was aspirated and replaced by LPS-containing medium (12.5 ng/ml) without or with the test components. In addition, naïve cells, vehicle-treated cells, Stimulated Control, and Stimulated Vehicle Control served as negative controls. Dexamethasone served as a positive control for anti-inflammatory assay. A Blank control group was included in the assay.\nThe spent media from all test groups were collected under standardized conditions and centrifuged at 250 g for 5 min to remove particulates. Clear supernatants were frozen at −70° C. until analysis. The secretion levels of PGE2 (an important inflammatory marker) were determined."}, "human sebocytes": {"tested_on": "human sebocytes", "conditions": "cultured human sebocytes and human skin organ culture; cited from earlier work"}, "[1]": {"conditions": "Homo sapiens, U-937, 1 μg/mL lipopolysaccharides, 24 hr, each component present at 10 μg/ml"}, "[2]": {"conditions": "LPS-stimulated, summary of Table 2"}},
  "data": [
    {"smiles": "C=C(C)[C@@H]1CCC(C)=C[C@H]1c1c(O)cc(CCCCC)cc1O", "note": "[Sample 1, Cannabidiol]", "values": [
      {"measurement": "inhibition at 10 µg/mL", "setting": "IL-1β; [1]", "value": 28.4, "unit": "%"},
      {"measurement": "effect on secretion of IL-1β (in words)", "setting": "IL-1β; [2]", "value": "attenuates secretion"},
      {"measurement": "inhibition at 10 µg/mL", "setting": "TNFα; [1]", "value": 48, "unit": "%"},
      {"measurement": "effect on secretion of TNFα (in words)", "setting": "TNFα; [2]", "value": "attenuates secretion"},
      {"measurement": "inhibition at 2.5 µg/mL", "setting": "prostaglandin E2 (PGE2)", "value": 24, "unit": "%"},
      {"measurement": "effect on lipogenic actions of arachidonic acid, linoleic acid and testosterone", "setting": "human sebocytes", "value": "inhibited the lipogenic actions of various compounds"},
      {"measurement": "effect on sebocyte proliferation", "setting": "human sebocytes", "value": "suppressed sebocyte proliferation"}
    ]}
  ]
}
